Measurements as given in paper PMC9581132, “Cross clinical-experimental-computational qualification of in silico drug trials on human cardiac purkinje cells for proarrhythmia risk prediction” (Frontiers in Toxicology, 2022).
“Also recorded” adds a separate entry of the source. Read-outs that look alike come from different tables or passages of the source.

Experiments:
[1] = parameters: method as in Woosley and Romer, 1999; key: 1: Known risk; 2: Conditional risk; NC: Not classified, i.e., evidence was not enough to add it to any risk category; conditions: CredibleMeds category; ref Woosley and Romer, 1999; cited from earlier work
hKv4.3 = molecular target: T1, hKv4.3 (Homo sapiens, UniProt Q9UK17); assay: Automated patch clamp (QPatch), transient outward K+ current Ito; assay type: cell-based; conditions: room temperature; dash = no effect or IC50 much higher than tested concentrations
T1 construct: expressed in transfected cells; host or cells: HEK-293
T1 sequence (Q9UK17 1-655): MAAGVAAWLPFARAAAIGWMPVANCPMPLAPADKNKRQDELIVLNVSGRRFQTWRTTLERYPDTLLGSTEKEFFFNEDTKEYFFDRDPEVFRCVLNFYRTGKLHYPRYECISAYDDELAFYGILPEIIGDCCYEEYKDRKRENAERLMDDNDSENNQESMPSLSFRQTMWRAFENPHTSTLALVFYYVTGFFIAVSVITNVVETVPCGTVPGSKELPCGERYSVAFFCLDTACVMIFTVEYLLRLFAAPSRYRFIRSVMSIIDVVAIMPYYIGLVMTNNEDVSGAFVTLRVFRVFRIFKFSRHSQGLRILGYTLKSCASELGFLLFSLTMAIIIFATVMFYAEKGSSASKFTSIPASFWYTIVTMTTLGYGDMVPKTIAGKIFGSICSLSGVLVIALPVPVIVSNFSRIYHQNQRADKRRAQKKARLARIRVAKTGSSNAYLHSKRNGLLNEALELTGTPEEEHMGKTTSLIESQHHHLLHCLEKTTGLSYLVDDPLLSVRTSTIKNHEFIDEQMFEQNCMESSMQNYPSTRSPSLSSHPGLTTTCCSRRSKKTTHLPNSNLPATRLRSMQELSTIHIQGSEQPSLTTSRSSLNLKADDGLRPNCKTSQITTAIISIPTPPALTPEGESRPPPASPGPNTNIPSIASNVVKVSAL

rabbit Purkinje fibers = assay: In vitro drug assay on rabbit Purkinje fibers (microelectrode AP recordings); conditions: for EADs occurrence in rabbit experiments / Risk classification based on EADs occurrence, in vitro rabbit: slow pacing; for EADs occurrence in rabbit experiments: across tested concentrations; for Risk classification based on EADs occurrence, in vitro rabbit: compared with clinical risk; for ΔAPD90 Exp: Normal pacing (1 Hz)
hNav1.5 [2] = molecular target: T2, hNav1.5 (Homo sapiens, UniProt Q14524); assay: Automated patch clamp (QPatch), fast Na+ current INa; assay type: cell-based; conditions: room temperature; dash = no effect or IC50 much higher than tested concentrations
T2 construct: expressed in transfected cells; host or cells: HEK-293

rabbit hearts = conditions: cited from earlier work
hCav1.2 [3] = molecular target: T3, hCav1.2 (Homo sapiens, UniProt Q13936); assay: Automated patch clamp (QPatch), L-type Ca2+ current ICaL; assay type: cell-based; conditions: room temperature; dash = no effect or IC50 much higher than tested concentrations
T3 construct: expressed in transfected cells; host or cells: CHO

hCav1.2 [4] = molecular target: T3, hCav1.2; conditions: ref Crumb et al., 2016; cited from earlier work
hERG = molecular target: T4, hERG (Homo sapiens, UniProt Q12809); conditions: ref Crumb et al., 2016; cited from earlier work
T4 construct: host or cells: CHO (hERG-CHO) and HEK-293 stably transfected with hERG cDNA

hNav1.5 [5] = molecular target: T2, hNav1.5; parameters: method as in Crumb et al., 2016; conditions: ref Crumb et al., 2016; cited from earlier work
[6] = parameters: method as in Démolis et al., 2003; conditions: therapeutic doses; ref Démolis et al., 2003; cited from earlier work
hiPSC-CMs = conditions: 100 µM; ref Blinova et al., 2018; Yu et al., 2019; cited from earlier work

T3 sequence (Q13936 whole entry): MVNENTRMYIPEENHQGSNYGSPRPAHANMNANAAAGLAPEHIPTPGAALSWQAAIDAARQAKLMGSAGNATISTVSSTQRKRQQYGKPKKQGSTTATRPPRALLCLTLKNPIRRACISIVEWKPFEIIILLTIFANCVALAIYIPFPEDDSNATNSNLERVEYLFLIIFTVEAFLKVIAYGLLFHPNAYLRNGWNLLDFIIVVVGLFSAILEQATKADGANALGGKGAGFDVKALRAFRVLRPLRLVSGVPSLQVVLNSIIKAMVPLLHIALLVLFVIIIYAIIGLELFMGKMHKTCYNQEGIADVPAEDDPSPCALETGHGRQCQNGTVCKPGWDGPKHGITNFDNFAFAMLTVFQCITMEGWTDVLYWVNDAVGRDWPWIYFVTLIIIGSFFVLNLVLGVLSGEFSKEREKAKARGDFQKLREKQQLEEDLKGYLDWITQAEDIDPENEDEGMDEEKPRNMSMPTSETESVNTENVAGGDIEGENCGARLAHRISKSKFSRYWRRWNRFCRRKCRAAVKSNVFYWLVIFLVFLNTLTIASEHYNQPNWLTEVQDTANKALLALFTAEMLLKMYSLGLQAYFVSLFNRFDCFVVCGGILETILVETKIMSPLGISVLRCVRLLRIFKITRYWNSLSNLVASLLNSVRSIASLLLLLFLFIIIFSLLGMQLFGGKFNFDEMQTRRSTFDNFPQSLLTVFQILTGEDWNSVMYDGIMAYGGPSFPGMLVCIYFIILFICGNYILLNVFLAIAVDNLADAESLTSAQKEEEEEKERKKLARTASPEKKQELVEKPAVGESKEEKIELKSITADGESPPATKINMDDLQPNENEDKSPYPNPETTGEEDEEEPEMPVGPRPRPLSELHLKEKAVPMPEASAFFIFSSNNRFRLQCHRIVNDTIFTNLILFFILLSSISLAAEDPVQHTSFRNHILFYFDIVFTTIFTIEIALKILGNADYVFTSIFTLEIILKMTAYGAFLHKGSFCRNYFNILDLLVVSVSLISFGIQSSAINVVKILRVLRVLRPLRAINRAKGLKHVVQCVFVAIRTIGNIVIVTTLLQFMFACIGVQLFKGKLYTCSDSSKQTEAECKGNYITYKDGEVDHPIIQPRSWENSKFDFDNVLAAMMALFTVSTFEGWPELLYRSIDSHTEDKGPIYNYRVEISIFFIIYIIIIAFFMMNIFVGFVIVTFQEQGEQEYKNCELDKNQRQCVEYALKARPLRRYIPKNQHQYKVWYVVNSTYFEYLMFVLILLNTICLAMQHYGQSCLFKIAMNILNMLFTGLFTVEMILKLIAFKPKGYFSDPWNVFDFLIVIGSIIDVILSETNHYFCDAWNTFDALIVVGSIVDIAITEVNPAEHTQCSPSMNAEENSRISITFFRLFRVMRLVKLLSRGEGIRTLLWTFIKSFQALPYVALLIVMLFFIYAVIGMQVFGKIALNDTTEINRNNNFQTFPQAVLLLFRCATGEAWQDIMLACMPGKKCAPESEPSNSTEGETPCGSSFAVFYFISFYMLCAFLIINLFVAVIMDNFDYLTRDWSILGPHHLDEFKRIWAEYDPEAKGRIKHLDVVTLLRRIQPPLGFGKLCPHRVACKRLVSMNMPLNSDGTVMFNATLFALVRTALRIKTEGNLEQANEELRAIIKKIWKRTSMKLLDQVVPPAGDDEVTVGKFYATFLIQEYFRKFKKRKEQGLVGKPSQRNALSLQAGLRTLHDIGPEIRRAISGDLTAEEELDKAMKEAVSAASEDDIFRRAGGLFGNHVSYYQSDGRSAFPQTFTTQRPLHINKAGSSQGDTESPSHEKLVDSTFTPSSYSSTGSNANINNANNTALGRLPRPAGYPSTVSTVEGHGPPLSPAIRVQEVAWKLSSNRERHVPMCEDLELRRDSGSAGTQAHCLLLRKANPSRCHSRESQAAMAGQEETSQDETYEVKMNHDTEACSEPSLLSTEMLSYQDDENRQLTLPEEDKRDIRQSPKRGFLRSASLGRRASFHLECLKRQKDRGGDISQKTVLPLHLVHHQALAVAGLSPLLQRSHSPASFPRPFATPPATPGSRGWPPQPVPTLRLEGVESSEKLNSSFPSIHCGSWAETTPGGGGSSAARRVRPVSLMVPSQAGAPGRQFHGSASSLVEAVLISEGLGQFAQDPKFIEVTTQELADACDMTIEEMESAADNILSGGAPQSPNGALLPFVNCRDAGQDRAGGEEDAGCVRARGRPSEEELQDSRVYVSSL
T2 sequence (Q14524 whole entry): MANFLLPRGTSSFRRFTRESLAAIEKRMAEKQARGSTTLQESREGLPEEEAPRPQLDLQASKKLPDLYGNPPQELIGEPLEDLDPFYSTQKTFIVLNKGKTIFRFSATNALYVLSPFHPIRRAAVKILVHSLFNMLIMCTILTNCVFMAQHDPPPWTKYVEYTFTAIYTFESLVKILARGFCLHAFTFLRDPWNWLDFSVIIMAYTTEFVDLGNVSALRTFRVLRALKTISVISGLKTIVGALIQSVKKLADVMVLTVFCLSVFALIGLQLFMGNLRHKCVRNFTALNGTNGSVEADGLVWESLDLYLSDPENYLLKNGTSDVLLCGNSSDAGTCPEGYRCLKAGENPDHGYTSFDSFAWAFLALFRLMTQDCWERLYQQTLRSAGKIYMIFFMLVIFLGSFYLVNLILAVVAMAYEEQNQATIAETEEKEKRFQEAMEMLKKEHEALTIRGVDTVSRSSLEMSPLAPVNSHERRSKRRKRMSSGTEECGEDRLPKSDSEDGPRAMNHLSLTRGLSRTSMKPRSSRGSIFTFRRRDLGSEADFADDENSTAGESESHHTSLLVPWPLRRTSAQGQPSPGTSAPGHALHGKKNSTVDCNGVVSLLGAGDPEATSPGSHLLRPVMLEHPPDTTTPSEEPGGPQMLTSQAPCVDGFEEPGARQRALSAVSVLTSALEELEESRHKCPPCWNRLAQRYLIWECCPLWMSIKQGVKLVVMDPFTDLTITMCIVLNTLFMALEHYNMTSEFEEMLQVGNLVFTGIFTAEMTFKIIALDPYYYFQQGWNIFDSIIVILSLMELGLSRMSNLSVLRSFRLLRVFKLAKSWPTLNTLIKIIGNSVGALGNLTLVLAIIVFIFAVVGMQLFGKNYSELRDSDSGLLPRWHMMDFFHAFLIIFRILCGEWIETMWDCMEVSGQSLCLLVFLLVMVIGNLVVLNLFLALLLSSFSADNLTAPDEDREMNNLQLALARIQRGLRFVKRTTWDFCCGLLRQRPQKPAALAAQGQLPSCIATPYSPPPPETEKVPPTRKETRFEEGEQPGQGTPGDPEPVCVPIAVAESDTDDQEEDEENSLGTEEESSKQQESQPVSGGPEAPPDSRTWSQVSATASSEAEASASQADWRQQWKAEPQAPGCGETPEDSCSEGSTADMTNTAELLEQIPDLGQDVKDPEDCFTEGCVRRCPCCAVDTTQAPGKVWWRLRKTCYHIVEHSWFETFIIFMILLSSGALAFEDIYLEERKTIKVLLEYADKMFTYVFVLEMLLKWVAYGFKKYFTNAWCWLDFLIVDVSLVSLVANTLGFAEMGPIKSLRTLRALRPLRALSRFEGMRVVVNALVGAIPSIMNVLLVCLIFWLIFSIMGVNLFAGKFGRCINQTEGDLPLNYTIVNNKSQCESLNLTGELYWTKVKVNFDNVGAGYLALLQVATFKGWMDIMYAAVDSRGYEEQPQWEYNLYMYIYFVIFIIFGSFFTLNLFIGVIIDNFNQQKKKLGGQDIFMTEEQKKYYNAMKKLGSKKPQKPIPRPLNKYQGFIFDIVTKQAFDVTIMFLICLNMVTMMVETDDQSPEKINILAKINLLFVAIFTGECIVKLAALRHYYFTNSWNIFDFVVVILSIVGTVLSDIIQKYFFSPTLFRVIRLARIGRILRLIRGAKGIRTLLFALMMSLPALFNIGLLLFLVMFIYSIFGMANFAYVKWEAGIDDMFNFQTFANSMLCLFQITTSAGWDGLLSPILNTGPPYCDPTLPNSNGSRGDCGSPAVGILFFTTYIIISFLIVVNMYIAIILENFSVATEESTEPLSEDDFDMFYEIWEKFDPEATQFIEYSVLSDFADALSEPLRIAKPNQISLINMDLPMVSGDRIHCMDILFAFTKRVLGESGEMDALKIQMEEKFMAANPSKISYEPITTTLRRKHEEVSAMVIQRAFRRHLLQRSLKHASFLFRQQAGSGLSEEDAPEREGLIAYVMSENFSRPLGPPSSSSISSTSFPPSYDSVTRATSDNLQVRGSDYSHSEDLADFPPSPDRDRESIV

Row | IC50 (hKv4.3) [µM] | EADs occurrence in rabbit experiments (rabbit Purkinje fibers) | Risk classification based on EADs occurrence, in vitro rabbit (rabbit Purkinje fibers) | SMILES | TdP risk [1] | further results
1 | 22 | induced EADs |  | COc1ccc(CCN2CCC(Nc3nc4ccccc4n3Cc3ccc(F)cc3)CC2)cc1 [Astemizole] | 1 | 
2 | 13 | no EADs were observed | misclassified | CC(C)COCC(CN(Cc1ccccc1)c1ccccc1)N1CCCC1 (stereo not drawn) [Bepridil] | 1 | IC50 (hNav1.5 [2]): 3.1 µM; EADs in rabbit hearts (rabbit hearts; up to 10 µM, ref Anno et al., 1984, Hondeghem et al., 2003): did not induce EADs
3 |  | induced EADs |  | COc1cc(N)c(Cl)cc1C(=O)NC1CCN(CCCOc2ccc(F)cc2)CC1OC (stereo not drawn) [Cisapride] | 1 | IC50 (hCav1.2 [3]): 33 µM
4 |  |  |  | CC[C@H]1OC(=O)[C@H](C)[C@@H](O[C@H]2C[C@@](C)(OC)[C@@H](O)[C@H](C)O2)[C@H](C)[C@@H](O[C@@H]2O[C@H](C)C[C@H](N(C)C)[C@H]2O)[C@](C)(OC)C[C@@H](C)C(=O)[C@H](C)[C@@H](O)[C@]1(C)O [Clarithromycin] | 1 | IC50 (hCav1.2 [4]): 103 µM; IC50 (hERG): 62.5 µM; IC50 (hNav1.5 [5]): 163 µM; QT prolongation [6]: no QT prolongation at therapeutic doses; ΔAPD90 Exp (rabbit Purkinje fibers; 30 μM): 51%
5 |  |  |  | CC(C)N(CCC(C(N)=O)(c1ccccc1)c1ccccn1)C(C)C (stereo not drawn) [Disopyramide] | 1 | IC50 (hCav1.2 [3]): 114 µM
6 |  |  |  | CN(CCOc1ccc(NS(C)(=O)=O)cc1)CCc1ccc(NS(C)(=O)=O)cc1 [Dofetilide] | 1 | ΔAPD90 Exp (rabbit Purkinje fibers; 0.01 μM): 113%
7 | 31 | did not induce any EADs | correctly classified as safe | COC(=O)C1=C(C)NC(C)=C(C(=O)OC)C1c1ccccc1[N+](=O)[O-] [Nifedipine] |  | 
8 |  |  |  | C=C[C@H]1C[N@@]2CC[C@H]1C[C@@H]2[C@@H](O)c1ccnc2ccc(OC)cc12 [Quinidine] | 1 | 
9 |  | no EADs were observed | misclassified | COc1ccccc1OCC(O)CN1CCN(CC(=O)Nc2c(C)cccc2C)CC1 (stereo not drawn) [Ranolazine] | 2 | Effect in rabbit hearts (rabbit hearts; 10 µM, ref Frommeyer et al., 2012, Sossalla et al., 2014): anti-torsadogenic effects; IC50 (hCav1.2 [3]): 156 µM; EADs in hiPSC-CMs (hiPSC-CMs): induced EADs
10 |  |  |  | Cc1nc2n(c(=O)c1CCN1CCC(c3noc4cc(F)ccc34)CC1)CCCC2 [Risperidone] | 2 | 
11 |  |  |  | CC(C)NCC(O)c1ccc(NS(C)(=O)=O)cc1 (stereo not drawn) [Sotalol] |  | ΔAPD90 Exp (rabbit Purkinje fibers; 30 μM): 96%
12 | 68 | no EADs were observed | misclassified | CC(C)(C)c1ccc(C(O)CCCN2CCC(C(O)(c3ccccc3)c3ccccc3)CC2)cc1 (stereo not drawn) [Terfenadine] |  | Risk classification based on mean APD90 prolongation >10%, in vitro rabbit (rabbit Purkinje fibers; 1 Hz): false negative; AP prolongation in vitro rabbit experiments (rabbit Purkinje fibers; APD90 at 1 Hz, maximum over tested concentrations): up to 7%

Row | SMILES | IC50 (hKv4.3) [µM] | EADs occurrence in rabbit experiments (rabbit Purkinje fibers) | Risk classification based on EADs occurrence, in vitro rabbit (rabbit Purkinje fibers) | TdP risk [1] | further results
13 | COc1ccc([C@@H]2Sc3ccccc3N(CCN(C)C)C(=O)[C@@H]2OC(C)=O)cc1 [Diltiazem] | 84 | did not induce any EADs; also recorded: did not induce any repolarization abnormalities | correctly classified as safe |  | 
